What is called LD50 is the dose at which mortality reaches 50%. Lower therefore signals a more toxic substance.

The subject of data set [1] is L1210 leukemia system. To be noted: when quaternized; J. Med. Chem. 10, 706, 1967; cited from earlier work.
The nature of data set [2]: in vivo. The following applies: mouse. An excerpt:
Due to the high positive charge density and high water solubility, ionenes strongly interact with a wide variety of cell materials.

Data set [3] concerns sulfhydryl groups on the cell periphery. Kind of data set: Effect of N-ethylmaleimide pretreatment on cell adhesion to ionene-coated surface. It is filed as cell-based. To be noted: pretreatment of the cells. The text has this:
Chemical interaction with DNA is also a possibility. In fact, ionenes form strong waterinsoluble complexes with DNA.

Data set [4] deals with DNA. To be noted: polyamines, general knowledge; cited from earlier work.
Data set [5] can be described thus: Repeated-dose tolerance of PC-6 and cyclophosphamide in mice. The class given is in vivo. To be noted: similar doses to nine doses of 100 mg/kg per day.
A short description of data set [6]: in vivo. An excerpt: Protamine sulfate and toluidine blue, neither of which are free of toxic effects, are clinically used as antiheparin agents.
Data set [7] is described as follows: Protective action of heparin against toxicity of 6,3-ionene bromide, mice. It is filed as in vivo. An excerpt:
(§1) This is not surprising considering the formation of relatively stable complexes between ionenes and heparin.

The nature of data set [8]: Protective action of heparin against toxicity of 6,3-ionene bromide, dogs. The class given is in vivo.
Excerpt: as §1

In the case of `O=C(Nc1ccc(-c2ccncc2)cc1)c1ccc(C(=O)Nc2ccc(-c3ccncc3)cc2)cc1`, in data set [1], the “Effectiveness against L1210 leukemia system” value is listed as “very effective against the L1210 leukemia system when quaternized”.
Turning to `C[N+](C)(CBr)CCCCCC[N+](C)(C)CBr`, the values for the LD50 in data set [2] (ip) and in data set [2] (po) were 10 to 50 mg/kg and 300 to 500 mg/kg, respectively.
`C[N+](C)(CCBr)CCCCCC[N+](C)(C)CCBr`: the LD50 in data set [2] (ip) lay within 10 to 50 mg/kg; in data set [2] (po) it was 100 to 200 mg/kg.
The like results for `C[N+](C)(CBr)CCCC[N+](C)(C)CBr` were, in that order, over 1000 mg/kg and over 1000 mg/kg.
On to `C[N+]1(C)CC[N+](C)(C)CC1`, for which the LD50 in data set [2] (ip) and in data set [2] (po) was over 1000 mg/kg in each case.
In the case of `CCN1C(=O)C=CC1=O` [N-ethylmaleimide (NEM), N-ethylmaleimide], the “Effect on cell adhesion on an ionene-coated surface” value in data set [3] is reported as “inhibited cell adhesion on an ionene-coated surface”.
In the case of `NCCCCNCCCN` [Spermidine, NH2 (CH2)3 --NH--(CH2)4 NH2], the “Binding to DNA” value in data set [4] was “bind to DNA”.
In the case of `NCCCNCCCCNCCCN` [Spermine, NH2 (CH2)3 NH(CH2)4 NH(CH2)3 NH2], in data set [4], the “Binding to DNA” value is “bind to DNA”.
With `O=P1(N(CCCl)CCCl)NCCCO1` (stereo not drawn) [cyclophosphamide], the “Lethality of similar doses” value in data set [5] is recorded as “lethal within a much shorter time”.
With `Cc1cc2nc3ccc(N(C)C)cc3[s+]c2cc1N` [toluidine blue], the LD50 in data set [6] (in vivo, iv) was determined as 45 mg/kg.
On to Heparin, for which the “Survival of mice pretreated with heparin” value in data set [7] (6,3-ionene bromide doses relative to LD50, heparin pretreatment) was “survive doses three times the LD50 values with only mild toxicity symptoms”. Besides, the “Protective action in neutralizing the toxicity of 6,3-ionene bromide” value in data set [7] (mice) and in data set [8] was “offers a protective action in neutralizing the toxicity of 6,3-ionene bromide” each time.
As for Protamine sulfate, in data set [6] (i.v., comparison agents, species not given), the “i.v. LD50” value was found to be 44 mg/kg.

These data come from US4013507A, “Ionene polymers for selectively inhibiting the vitro growth of malignant cells” (California Institute of Technology, priority 1975, dated 1977).
